Measurements as given in ChEMBL document CHEMBL5726691, “Carboxylic acid compound, method for preparation thereof, and use thereof” (2018).

Target: T1, Solute carrier family 22 member 12 (Homo sapiens, UniProt Q96S37)
T1 sequence (Q96S37 whole entry): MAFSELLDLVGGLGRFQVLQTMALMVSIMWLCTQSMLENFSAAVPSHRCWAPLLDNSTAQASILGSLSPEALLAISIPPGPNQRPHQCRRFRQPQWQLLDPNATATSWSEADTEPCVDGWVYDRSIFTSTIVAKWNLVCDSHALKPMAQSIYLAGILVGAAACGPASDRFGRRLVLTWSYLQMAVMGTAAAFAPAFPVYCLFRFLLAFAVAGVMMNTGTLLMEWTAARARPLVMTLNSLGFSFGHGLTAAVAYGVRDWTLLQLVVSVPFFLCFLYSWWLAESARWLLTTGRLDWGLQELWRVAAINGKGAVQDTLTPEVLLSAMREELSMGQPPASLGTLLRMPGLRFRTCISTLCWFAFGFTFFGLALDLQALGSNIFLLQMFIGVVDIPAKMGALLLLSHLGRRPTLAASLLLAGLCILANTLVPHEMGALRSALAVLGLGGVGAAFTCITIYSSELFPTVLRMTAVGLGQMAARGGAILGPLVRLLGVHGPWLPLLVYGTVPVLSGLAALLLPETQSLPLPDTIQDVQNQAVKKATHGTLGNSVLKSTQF
Assay: 150 microliter of cell lysate (100 mM of NaOH) was added in each well. Cell plate was placed on a vibrating plate and vibrated for 10 min at a speed of 600 rpm such that the cells were completely lysed. The cell plate was put in a centrifuge and spun for 5 min at a speed of 1000 rpm, then 45 microliter of supernatant was sucked out from each well and transferred to 96-well plate (Isoplate-96 Microplate from PerkinElmer).

Compound N#Cc1ccc(-c2ccccc2S(=O)(=O)CC2(CC(=O)O)CC2)cc1 has an IC50 of over 1000 nM.
